Measured values taken from the supplement of paper PMC10307832.

Experiments:
Experiment in all cases: relative viability (nuclei count vs DMSO), 5 days (fraction); higher = more cells survive
XMD14-99 + Pictilisib = compound: CN1CCN(CC1)C2=CC(=C(C=C2)NC3=NC(=C(S3)C(=O)C4=C(C=CC=C4Cl)Cl)N)OC [XMD14-99] + CS(=O)(=O)N1CCN(Cc2cc3nc(-c4cccc5[nH]ncc45)nc(N4CCOCC4)c3s2)CC1 [Pictilisib] (partner 1 µM)
How it was run: (§1)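 Lung cancer cell lines were pin-tool dosed in 1536-well plates on the day after seeding, with either a lone drug or a fixed anchor-drug dose plus five library-drug doses (not always all listed) in √10 steps. Nuclei were counted on 4× images after 5 days. Relative viability is the ratio of treated-well to vehicle-well nuclei counts, with each value a median of duplicate plates.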

XMD14-99 + Foretinib = compound: CN1CCN(CC1)C2=CC(=C(C=C2)NC3=NC(=C(S3)C(=O)C4=C(C=CC=C4Cl)Cl)N)OC [XMD14-99] + COc1cc2c(Oc3ccc(NC(=O)C4(C(=O)Nc5ccc(F)cc5)CC4)cc3F)ccnc2cc1OCCCN1CCOCC1 [Foretinib] (partner 0.25 µM)
How it was run: as §1

AZD1208 + Tozasertib = compound: N[C@@H]1CCCN(c2c(/C=C3\SC(=O)NC3=O)cccc2-c2ccccc2)C1 [AZD1208] + Cc1cc(Nc2cc(N3CCN(C)CC3)nc(Sc3ccc(NC(=O)C4CC4)cc3)n2)n[nH]1 [Tozasertib] (partner 0.1 µM)
How it was run: as §1

AZD1208 + Olaparib = compound: N[C@@H]1CCCN(c2c(/C=C3\SC(=O)NC3=O)cccc2-c2ccccc2)C1 [AZD1208] + O=C(c1cc(Cc2n[nH]c(=O)c3ccccc23)ccc1F)N1CCN(C(=O)C2CC2)CC1 [Olaparib] (partner 8 µM)
How it was run: as §1

Cell Line | relative viability (XMD14-99 + Pictilisib; first compound 0.08 µM) | relative viability (XMD14-99 + Pictilisib; first compound 0.8 µM) | relative viability (XMD14-99 + Pictilisib; first compound 2.53 µM) | relative viability (XMD14-99 + Pictilisib; first compound 8 µM) | relative viability (XMD14-99 + Foretinib; first compound 0.08 µM) | relative viability (XMD14-99 + Foretinib; first compound 0.8 µM) | relative viability (XMD14-99 + Foretinib; first compound 2.53 µM) | relative viability (XMD14-99 + Foretinib; first compound 8 µM) | relative viability (AZD1208 + Tozasertib; first compound 0.08 µM) | relative viability (AZD1208 + Tozasertib; first compound 0.253 µM) | relative viability (AZD1208 + Tozasertib; first compound 0.8 µM) | relative viability (AZD1208 + Tozasertib; first compound 2.53 µM) | relative viability (AZD1208 + Tozasertib; first compound 8 µM) | relative viability (AZD1208 + Olaparib; first compound 0.08 µM) | relative viability (AZD1208 + Olaparib; first compound 0.253 µM) | relative viability (AZD1208 + Olaparib; first compound 0.8 µM) | relative viability (AZD1208 + Olaparib; first compound 2.53 µM) | relative viability (AZD1208 + Olaparib; first compound 8 µM)
NCI-H2405 | 0.39 | 0.414 | 0.457 | 0.248 | 1.04 | 1.03 | 1.02 | 0.838 | 0.726 | 0.721 | 0.693 | 0.71 | 0.635 | 0.806 | 0.837 | 0.813 | 0.813 | 0.891
NCI-H2023 | 0.238 | 0.247 | 0.26 | 0.157 | 0.986 | 0.842 | 0.704 | 0.698 | 0.389 | 0.235 | 0.254 | 0.219 | 0.181 | 0.473 | 0.51 | 0.416 | 0.44 | 0.366
HCC-15 | 0.727 | 0.778 | 0.703 | 0.495 | 1.01 | 1.01 | 0.9 | 0.693 | 0.362 | 0.306 | 0.241 | 0.186 | 0.184 | 0.664 | 0.718 | 0.66 | 0.636 | 0.613
COR-L23 | 0.676 | 0.748 | 0.68 | 0.414 | 0.901 | 0.962 | 0.812 | 0.572 | 0.152 | 0.174 | 0.187 | 0.182 | 0.171 | 0.307 | 0.354 | 0.372 | 0.304 | 0.321
HCC-78 | 0.221 | 0.224 | 0.2 | 0.191 | 0.506 | 0.489 | 0.566 | 0.53 | 0.456 | 0.412 | 0.437 | 0.288 | 0.256 | 0.859 | 0.904 | 0.762 | 0.815 | 0.754
NCI-H838 | 0.434 | 0.411 | 0.38 | 0.296 | 1.01 | 0.943 | 0.926 | 0.887 | 0.277 | 0.261 | 0.267 | 0.268 | 0.264 | 0.789 | 0.796 | 0.72 | 0.759 | 0.753
NCI-H2126 | 0.5 | 0.527 | 0.508 | 0.473 | 1.19 | 1.13 | 1.2 | 0.832 | 0.743 | 0.784 | 0.816 | 0.632 | 0.66 | 0.944 | 0.917 | 0.759 | 0.912 | 0.828
BEN | 0.554 | 0.523 | 0.641 | 0.442 | 0.662 | 0.695 | 0.705 | 0.678 | 0.507 | 0.414 | 0.385 | 0.374 | 0.435 | 1.01 | 0.985 | 0.722 | 0.758 | 0.59
LCLC-103H | 0.58 | 0.731 | 0.558 | 0.454 | 0.802 | 0.691 | 0.734 | 0.607 | 0.51 | 0.425 | 0.457 | 0.481 | 0.373 | 0.774 | 0.798 | 0.811 | 0.81 | 0.786
EKVX | 0.422 | 0.488 | 0.487 | 0.35 | 0.768 | 0.888 | 0.876 | 0.662 | 0.444 | 0.462 | 0.376 | 0.388 | 0.262 | 0.793 | 0.941 | 0.811 | 0.829 | 0.821
LXF-289 | 0.699 | 0.824 | 0.753 | 0.597 | 0.964 | 0.949 | 0.923 | 0.898 | 0.178 | 0.158 | 0.16 | 0.131 | 0.123 | 1.03 | 1.23 | 1.06 | 1.03 | 1.01
ABC-1 | 0.754 | 0.667 | 0.588 | 0.47 | 1.14 | 0.883 | 0.957 | 0.937 | 0.168 | 0.155 | 0.214 | 0.192 | 0.192 | 0.623 | 0.813 | 0.56 | 1.17 | 0.759
NCI-H661 | 0.375 | 0.322 | 0.389 | 0.298 | 0.93 | 0.883 | 0.796 | 0.681 | 0.351 | 0.347 | 0.361 | 0.358 | 0.355 | 0.762 | 0.754 | 0.728 | 0.745 | 0.758
NCI-H1650 | 0.561 | 0.67 | 0.505 | 0.328 | 1.14 | 1.27 | 1.13 | 0.941 | 0.423 | 0.387 | 0.277 | 0.321 | 0.304 | 0.712 | 0.787 | 0.839 | 0.856 | 0.796
NCI-H2087 | 0.95 | 0.787 | 0.602 | 0.525 | 1.05 | 0.86 | 0.746 | 0.569 | 0.245 | 0.2 | 0.264 | 0.209 | 0.212 | 0.543 | 0.548 | 0.513 | 0.515 | 0.435
NCI-H1793 | 0.423 | 0.289 | 0.368 | 0.333 | 0.704 | 0.608 | 0.644 | 0.641 | 0.302 | 0.313 | 0.314 | 0.296 | 0.267 | 0.878 | 0.649 | 0.767 | 0.744 | 0.675
